Measurements as given in patent publication US12590961B2, “Quantum dot conjugated virus spike protein for cell-based bio-sensing systems and drug screening” (priority 2020, dated 2026).

Test system: ACE2-GFP HEK293T cells
Assay type: cell-based, human

## O=C(N/N=C/c1cc(O)c(O)cc1O)c1cc2ccccc2cc1O [Dyngo-4a]
  blocking of endo(RBD-ACE2), QD608-RBD induced translocation of ACE2-GFP: robustly blocked
  effect on ACE2-GFP localization, compound alone: did not affect the ACE2-GFP localization
